PMC5077133, “Towards Development of Small Molecule Lipid II Inhibitors as Novel Antibiotics” (PLoS ONE, 2016)
Where two headings read alike, the source gives them in different places.

How the values were obtained:
[1] = Solubility in water (laser nephelometry); type: physicochemical; details: n=3
Description: Solubility in water was determined using a NEPHELOstar^plus laser nephelometer (BMG Labtech, Cary, NC) at a wavelength of 635 nm and bottom read optics using a 96-well plate format. A solution of 6jc48-1 was prepared at a concentration of 2.5 mg/ml in DMSO. The DMSO solution (10 μl) was added to wells containing water (290 μl) for a final concentration of 125 μg/ml. The plate was incubated at room temperature for two hours prior to reading in the nephalometer. All samples were run in triplicate. Control samples (DMSO with no analyte) were prepared and run in parallel.

[2] = Plasma protein binding (Transil); type: in vitro ADME; details: human, TRANSIL XL PPB plates (human plasma protein beads)
Description: Human plasma protein binding was determined using TRANSIL^XL PPB plates (Sovicell, Leipzig, Germany). The compound 6jc48-1 (15 ul, 32% DMSO stock solution) was added to each well of a column (8 wells total) on a room temperature equilibrated plate. The plate was incubated for twelve minutes on a shaker at 1000 rpm then centrifuged for 10 minutes at 750 × g to sediment the beads from the suspension. Aliquots (100 ul) were transferred from the supernatants to 96-well plate for MS analysis. Plasma protein binding data analysis was completed by using the supplied spreadsheet from the manufacturer (Sovicell, User Guide TRANSIL PPB binding kit V2.01, 2013).

CYP2C19 = target: T1, CYP2C19 (Homo sapiens, UniProt P33261); assay: Cytochrome P450 inhibition; type: in vitro ADME; details: recombinant human CYP2C19 (Supersomes), pH 7.4, probe CEC, IC50 fluorescence, substrate CEC, read-out: P450 enzyme inhibition IC50 CYP2C19/CEC
T1 construct: purchased Corning
T1 sequence (P33261 whole entry): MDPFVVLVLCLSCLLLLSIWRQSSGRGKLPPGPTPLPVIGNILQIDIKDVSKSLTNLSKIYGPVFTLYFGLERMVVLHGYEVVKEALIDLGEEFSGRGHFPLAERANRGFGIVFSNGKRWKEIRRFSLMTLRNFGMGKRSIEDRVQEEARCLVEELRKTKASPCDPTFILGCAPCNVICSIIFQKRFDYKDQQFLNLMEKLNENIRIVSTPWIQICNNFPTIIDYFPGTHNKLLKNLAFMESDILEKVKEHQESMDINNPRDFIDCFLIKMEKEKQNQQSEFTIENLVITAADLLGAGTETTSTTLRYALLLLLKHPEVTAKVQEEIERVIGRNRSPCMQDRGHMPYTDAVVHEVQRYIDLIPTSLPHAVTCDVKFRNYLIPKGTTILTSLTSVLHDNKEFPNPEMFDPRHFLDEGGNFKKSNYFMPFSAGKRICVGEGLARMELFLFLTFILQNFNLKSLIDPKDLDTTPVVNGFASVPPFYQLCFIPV
Description: (§1) The final concentration of each substrate was 1 μM.
(§2) Computation of IC50 values:The background of no-enzyme samples to determine the background value were averaged. The positive control or full-reaction samples to determine the signal value were averaged.
(§3) The percent activity of each sample was calculated as follows:
(§4) [(Test compound metabolite–average background)/(average signal–average background)] X 100 = % activity
(§5) The the IC50 value using non-linear regression was calculated.

CYP2D6 = target: T2, CYP2D6 (Homo sapiens, UniProt P10635); assay: Cytochrome P450 inhibition; type: in vitro ADME; details: recombinant human CYP2D6 (Supersomes), pH 7.4, probe AMMC, IC50 fluorescence, substrate AMMC, read-out: P450 enzyme inhibition IC50 CYP2D6/ AMMC
T2 construct: purchased Corning
T2 sequence (P10635 whole entry): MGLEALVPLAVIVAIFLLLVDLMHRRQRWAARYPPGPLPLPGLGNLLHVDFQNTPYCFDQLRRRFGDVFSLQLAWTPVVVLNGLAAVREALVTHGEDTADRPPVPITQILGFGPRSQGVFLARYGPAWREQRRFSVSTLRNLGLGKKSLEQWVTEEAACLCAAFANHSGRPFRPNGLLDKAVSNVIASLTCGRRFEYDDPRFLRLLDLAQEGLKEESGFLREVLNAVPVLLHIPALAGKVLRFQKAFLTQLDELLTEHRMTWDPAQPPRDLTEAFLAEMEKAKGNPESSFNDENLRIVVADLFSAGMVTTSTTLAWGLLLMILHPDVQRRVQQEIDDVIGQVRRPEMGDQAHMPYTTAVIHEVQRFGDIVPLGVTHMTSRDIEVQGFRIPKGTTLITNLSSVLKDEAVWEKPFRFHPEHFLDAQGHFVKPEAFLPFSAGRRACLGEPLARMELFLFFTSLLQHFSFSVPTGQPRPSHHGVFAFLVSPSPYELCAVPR
Description: as §1, §2, §3, §4, §5

CYP3A4 = target: T3, CYP3A4 (Homo sapiens, UniProt P08684); assay: Cytochrome P450 inhibition; type: in vitro ADME; details: IC50 fluorescence
T3 construct: purchased Corning
T3 sequence (P08684 whole entry): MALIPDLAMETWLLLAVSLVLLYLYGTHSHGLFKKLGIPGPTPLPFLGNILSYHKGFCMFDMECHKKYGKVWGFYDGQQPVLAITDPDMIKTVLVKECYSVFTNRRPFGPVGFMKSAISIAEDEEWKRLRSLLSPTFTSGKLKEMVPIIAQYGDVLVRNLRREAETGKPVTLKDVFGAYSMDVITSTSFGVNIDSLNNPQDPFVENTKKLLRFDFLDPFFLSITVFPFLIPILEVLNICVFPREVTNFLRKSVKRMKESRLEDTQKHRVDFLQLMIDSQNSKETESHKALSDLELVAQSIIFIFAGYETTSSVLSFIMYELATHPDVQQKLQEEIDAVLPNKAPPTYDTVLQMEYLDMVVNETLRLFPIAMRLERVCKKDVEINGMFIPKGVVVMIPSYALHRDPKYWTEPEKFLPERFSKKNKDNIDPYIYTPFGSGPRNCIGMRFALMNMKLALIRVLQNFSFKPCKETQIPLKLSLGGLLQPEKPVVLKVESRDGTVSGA
Description: as §1, §2, §3, §4, §5

[3] = Cytotoxicity against mammalian cells (MTS assay); type: cell-based; details: human, HeLa cells (ATCC CCL-2.2)
In short: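 HeLa cells exposed 72 h in RPMI1640 to compounds at 64 to 0.125 μg/ml, in triplicate. Viability measured as mitochondrial activity by MTS, and CC50 taken against a standard curve of serially diluted untreated cells.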

[4] = Tolerability in mice (maximum tolerated dose, clinical observations); details: C57BL/6J, mouse, in vivo, ip, 100 mg/kg, intraperitoneal, read-out: Dose safely administered intraperitoneally (preliminary maximum tolerated dose studies)
[5] = tested on: Enterococcus faecalis EF1509; assay: Murine peritoneal sepsis model; type: in vivo, C57BL/6J mice; details: 6jc48-1 100 mg/kg, ampicillin 300 mg/kg
Excerpt: Care of the mice met or exceeded the standards set forth by the National Institute of Health Guide for the care and use of laboratory animals and the AVMA panel on Euthanasia. All procedures in this study have been approved by the Institutional Animal Care and Use Committee (IACUC) at the University of Maryland Baltimore School of Medicine (Protocol number 02122005). Adult C57BL/6J mice (~18 grams, 8–10 weeks old) were used for all experiments. Mice were obtained from the Jackson Laboratory (Bar Harbor, Maine, USA) and housed in the IHV SPC animal core facility. Mice were fed standard chow (Harlan Laboratories) and water ad libitum. […] Infected animals (n = 5) were subsequently treated by intraperitoneal injection 30 min post-infection with 100 mg/kg of compound in 300 μL sterile saline solution, 5% Tween 80, 10% DMSO (V/V), ampicillin (300mg/kg), or vehicle (sterile saline solution, 5% Tween 80, 10% DMSO (V/V)) as positive and negative controls, respectively. Animals were closely observed during a period of 24 h and mice that show signs of severe sepsis were humanely euthanized. Mice were anesthetized by intraperitoneal injection of ketamine (80-100mg/kg) and xylazine (10–15 mg/kg). Once sedated, blood was collected by cardiac puncture. Immediately after blood collection the mice were euthanized by cervical dislocation. Spleens were harvested aseptically, weighed and homogenized in 500 μl of sterile saline solution using an IKA T10 basic disperser (IKA, Wilmington NC). Spleen homogenates were serially diluted and plated onto BHI agar plates. Bacterial counts were determined following 24 h incubation at 37°C and expressed as CFU per gram for spleen.
We established a murine model for sepsis to evaluate the efficacy of 6jc48-1 as an antibiotic agent in vivo. […] Based on the data obtained in the pharmacokinetic analysis, mice (n = 5) were inoculated intraperitoneally with E. faecalis EF1509 (~5 x 10^8 CFU/ animal) and treated after 30 min with compound 6jc48-1 (100 mg/kg IP), ampicillin (300 mg/kg IP) or vehicle. Animals were monitored for survival and after 24 h spleen samples were collected and analyzed for the presence of bacteria. Bacterial counts were determined by plating serial dilutions on BHI agar plates and compared to control treatment with ampicillin as measures of efficacy (Fig 5).

SMILES: CN(C)c1ccc(/C=C/c2cc(-c3ccc(Br)cc3)cc(-c3ccc(Br)cc3)[o+]2)cc1 [6jc48-1]
- solubility at 2 h [1]: > 50 µg/mL
- fraction unbound at 12 min [2]: 0.11
- IC50 (CYP2C19): > 10 µM
- IC50 (CYP2D6): > 10 µM
- IC50 (CYP3A4; substrate BFC, read-out: P450 enzyme inhibition IC50 CYP3A4/ BFC): 1.3 µM
- IC50 (CYP3A4; human, recombinant human CYP3A4 (Supersomes), pH 7.4, probe DBF, substrate DBF, read-out: P450 enzyme inhibition IC50 CYP3A4/ DBF): > 10 µM
- CC50 at 72 h [3]: > 100 µg/mL
- MTD [4]: ≥ 100 mg/kg
- Bacterial counts in spleen ([5]; IP treatment 30 min post-infection, spleen collected after 24 h): significant bacterial clearance
- Survival of infected animals ([5]; n = 5, IP treatment 30 min post-infection, length of the experiment (24 h)): Four out of five
